# Reference: patent US6482856B1, “Method and composition for treating mammalian disease caused by inflammatory response” (Cellular Sciences, Inc., priority 1995, dated 2002)
# Like-named read-outs stand apart in the source and are kept apart here.
# Experiments:
# [1] = test system: sodium sulfide; settings: in vivo; cited from earlier work
# [2] = test system: urinary calculi (stones); settings: rats fed calcium-oxalate lithogenic diet, versus control rats; cited from earlier work
# [3] = test system: acrylamide neuropathy of axons; settings: in vivo; cited from earlier work
# [4] = test system: emphysema and restrictive airway disease; assay: Inhalation of nebulized sodium pyruvate solution by a patient; lung capacity and lung function tests; assay type: in vivo, human
# Experimental: Subject: A person suffering from emphysema and restrictive airway disease was treated as described below for three (3) months.
# Treatment: The treatment was conducted as follows: Five (5) milliliters of five (5) millimolar sodium pyruvate solution is filter sterilized through a 0.2 micron filter. The sterile pyruvate solution is placed into a “Pulmo Aid” nebulizer manufactured by DeVilbiss Co., Somerset, Pa. 15501-0635. The sterile pyruvate solution is nebulized by the Pulmo Aid device fitted with a disposable nebulizer and inhaled by the patient. The patient inhales normally from the Pulmo Aid nebulizer until all of the solution has been nebulized and inhaled. This inhalation step typically takes about ten (10) to twenty (20) minutes.
# The patient is treated with this inhalation therapy periodically. Initially, treatments are about four (4) times a day at about six (6) hour intervals. Treatments were reduced to three (3) times a day at about eight (8) hour intervals after 30 days of therapy. Treatments were further reduced to once a day 60 DAYS AFTER ONSET OF TREATMENT. After ninety (90) days treatments are three to five times a week.
# [5] = test system: cyanide intoxication; settings: in vivo; cited from earlier work
# [6] = test system: gastric mucosa; settings: rats; caused by acetylsalicylic acid; cited from earlier work
# [7] = test system: bacterial and yeast systems; settings: cited from earlier work
# [8] = test system: L1210 leukemia; settings: advanced L1210 leukemia; cited from earlier work
# [9] = test system: gastric mucosa; settings: guinea pigs; caused by acetylsalicylic acid; cited from earlier work
# [10] = twenty to thirty minutes after initial treatment
smiles,measurement,setting,value
CC(=O)C(=O)[O-].[Na+] [sodium pyruvate],effect on lethal effects of sodium sulfide,[1],protect
same,urinary calculi (stones),[2],fewer
same,"onset and development of functional, morphological, and biochemical measures of acrylamide neuropathy",[3],retard
same,MVV (maximum ventilatory volume),"[4]; After Two Months Treatment, Before: 19",25
same,DCO (diffusion of carbon monoxide),"[4]; After Two Months Treatment, Before: 27",39 MI/min/mm Hg
same,DSB (diffusion single breath),"[4]; After Two Months Treatment, Before: 42",52
same,ERV (expiratory reserve volume),"[4]; After Two Months Treatment, Before: 62",110
same,IC (inspiratory capacity),"[4]; After Two Months Treatment, Before: 64",69
same,O SAT (oxygen saturation),"[4]; After Two Months Treatment, Before: 91",95
same,SVC (slow vital capacity),"[4]; After Two Months Treatment, inhaled 5 ml of 5 millimolar solution, Before: 63",83
same,overall condition of the subject,[4]; after three (3) months treatment,marked improvement
same,Improved lung function,[4]; conclusion of the treatment,20%
same,"Increased exercise tolerance, tested and certified",[4]; conclusion of the treatment,close to that of a person without emphysema and restrictive airway disease
same,Mental attitude,[4]; conclusion of the treatment,greatly improved
same,Reactive airway disease,[4]; conclusion of the treatment,reduced to the point that routine use of inhalers is not needed
same,recurrence of decreased pulmonary functions,[4]; conclusion of the treatment,No recurrence
same,exercise tolerance,[4]; [10],increase
same,tidal volume,[4]; [10],increases
same,wheezing,[4]; [10],stops
same,Use of oxygen,[4]; when treatment started,eliminated immediately
same,overall results,[4]; within two (2) weeks,dramatic results
same,effect on cyanide intoxication,[5],antagonist
same,"number of erosions, ulcers, and hemorrhages on the gastric mucosa",[6],reduce
same,growth,[7],enhance
same,hydrogen peroxide production,[7],inhibit
same,toxicity of reactive oxygen intermediates,[7],protect
same,abnormally deformed red blood cells,[8],restore abnormally deformed red blood cells to normal
same,"number of erosions, ulcers, and hemorrhages on the gastric mucosa",[9],reduce
